Data reported in patent US20180014541A1, “FUNGICIDAL ACTIVE COMPOUND COMBINATIONS” (ARYSTA LIFESCIENCE CORPORATION, priority 2004, published 2018).
Like-named read-outs stand apart in the source and are kept apart here.

Legend:
Rhizoctonia solani = Rhizoctonia solani test (in vitro)/microtiter plates, Example 2; settings: 96 h, read-out: % efficacy
Coriolus versicolor = test: microbe, parasite or virus in culture; settings: Trametes versicolor, 72 h, read-out: % efficacy
Pyricularia oryzae [1] = test: microbe, parasite or virus in culture; format: cell-based; settings: 72 h, read-out: % efficacy
Pyricularia oryzae [2] = test: microbe, parasite or virus in culture; format: cell-based; settings: 120 h, read-out: % efficacy
Botrytis cinerea = Botrytis cinerea test (in vitro)/microtiter plates, Example 5; format: cell-based; settings: 72 h, single active compound, spore suspension in PDB, 3 days incubation, ipconazole as commercially available formulation, read-out: % efficacy
Pyricularia oryzae [3] = test: microbe, parasite or virus in culture; format: cell-based; settings: 96 h, read-out: % efficacy
Pyricularia oryzae [4] = test: microbe, parasite or virus in culture; format: cell-based; settings: 72 h, read-out: % efficacy; remark: listed apart in the source

For `O=C(Nc1ccccc1-c1ccc(Cl)cc1)c1cccnc1Cl` [boscalid], the Emax at 0.1 ppm (Rhizoctonia solani) was 67%.
Work on `CC1COC(Cn2cncn2)(c2ccc(Oc3ccc(Cl)cc3)cc2Cl)O1` (centres unmarked) [difenoconazole] yielded an Emax at 0.03 ppm (Coriolus versicolor) of 93%.
Work on `CO/N=C(/C1=NOCCO1)c1ccccc1Oc1ncnc(Oc2ccccc2Cl)c1F` [fluoxastrobin] yielded an Emax at 0.1 ppm (Pyricularia oryzae [1]) of 80%, an Emax at 0.3 ppm (Pyricularia oryzae [2]) of 86% and an Emax at 0.003 ppm (Botrytis cinerea) of 9%. The Emax at 0.1 ppm (Pyricularia oryzae [3]) was 82%, the Emax at 0.3 ppm (Pyricularia oryzae [4]) was 84% and the Emax at 0.03 ppm (Coriolus versicolor) was 24%. For the same molecule, the Emax at 0.1 ppm (Rhizoctonia solani) was 64%.
Molecule `OC(Cn1cncn1)(c1ccc(F)cc1)c1ccccc1F` (centres unmarked) [flutriafol] has an Emax at 0.3 ppm (Pyricularia oryzae [2]) of 6%.
For `CC(C)C1CCC(Cc2ccc(Cl)cc2)C1(O)Cn1cncn1` (centres unmarked) [ipconazole], the Emax at 0.003 ppm (Botrytis cinerea) was 3%.
In the case of `COCC(=O)N(c1c(C)cccc1C)[C@H](C)C(=O)OC` [mefenoxam, metalaxyl-M], the Emax at 0.3 ppm (Pyricularia oryzae [4]) is reported as 16%.
In the case of `CCCCC(C#N)(Cn1cncn1)c1ccc(Cl)cc1` (centres unmarked) [myclobutanil], the Emax at 0.1 ppm (Pyricularia oryzae [3]) is reported as 4%.
`C=CCNC(=O)c1c([Si](C)(C)C)sc(C)c1C` [silthiofam] was tested, and the Emax at 0.1 ppm (Pyricularia oryzae [1]) was 1%.
